The structures appear in SMILES notation. pEC50: −log10 of the molar value.

In series [1] the test system is eNOS promoter. Briefly: Activation of eNOS transcription (eNOS promoter-luciferase reporter gene assay). Type of series: cell-based, human. As to conditions: 18 h incubation; for pEC50: EC50 of transcription induction ratio vs compound concentration, determined graphically, human endothelial cell line stably transfected with eNOS promoter-luciferase construct; for maximal fold induction: maximum transcription induction ratio (luciferase activity with compound / solvent alone), human endothelial cell line with eNOS promoter-luciferase construct, read-out: TIR(max). The method, boiled down:
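Human endothelial cell line stably carrying a 3.5 kB eNOS promoter fragment driving firefly luciferase, treated 18 h with compound (0.5% DMSO final). Luciferase induction relative to solvent gave transcription induction ratio versus concentration; EC50 determined graphically.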

In general, pEC50 refers to −log10 of the EC50, conventionally taken in molar units. One may read the melting point as the temperature, or range, at which the solid turns liquid. Take `O=C(NC1CCCc2ccccc2C1)c1ccc(F)cc1` (centres unmarked) [Compound 1, 4-FLUORO-N-(6,7,8,9-TETRAHYDRO-5H-BENZOCYCLOHEPTEN-6-YL)-BENZAMIDE]: the melting point came to 165 °C. Moreover, in series [1], the pEC50 was 7.70 and the maximal fold induction turned out to be 3.3.

In the case of `O=C(NC1CCCc2ccccc2C1O)c1ccc(F)cc1` (centres unmarked) [Compound 2, 4-FLUORO-N-(5-HYDROXY-6,7,8,9-TETRAHYDRO-5H-BENZOCYCLOHEPTEN-6-YL)-BENZAMIDE], the melting point worked out at 156 °C. Also, in series [1], the pEC50 was 5.22 and the maximal fold induction was found to be 2.2.

For `Cc1nc2ccc(C(=O)N[C@H]3CCCc4ccccc4C3)cc2[nH]1` [Compound 7, (S)-2-METHYL-3H-BENZOIMIDAZOLE-5-CARBOXYLIC ACID (6,7,8,9-TETRAHYDRO-5H-BENZOCYCLOHEPTEN-6-YL)-AMIDE], the melting point stood at 206 °C. Moreover, in series [1], the pEC50 was 7.12 and the maximal fold induction worked out at 3.3.

As for `CNc1cc(C(=O)NC2CCCc3ccccc3C2)ccc1C` (centres unmarked) [Compound 135, 4-METHYL-3-METHYLAMINO-N-(6,7,8,9-TETRAHYDRO-5H-BENZOCYCLOHEPTEN-6-YL)-BENZAMIDE], in series [1], the pEC50 was 6.23 and the maximal fold induction came to 3.

Turning to `Nc1nc(Cl)ccc1C(=O)NC1CCCc2ccccc2C1` (centres unmarked) [Compound 137, 2-AMINO-6-CHLORO-N-(6,7,8,9-TETRAHYDRO-5H-BENZOCYCLOHEPTEN-6-YL)-NICOTINAMIDE], in series [1], the pEC50 is 7.05 and the maximal fold induction turned out to be 3.

Consider `NS(=O)(=O)c1cc(C(=O)NC2CCCc3ccccc3C2)ccc1Cl` (centres unmarked) [Compound 138, 4-CHLORO-3-SULFAMOYL-N-(6,7,8,9-TETRAHYDRO-5H-BENZOCYCLOHEPTEN-6-YL)-BENZAMIDE], for which, in series [1], the pEC50 is 5.00 and the maximal fold induction came to 3.

Turning to `CS(=O)(=O)c1cccc(C(=O)NC2CCCc3ccccc3C2)c1` (centres unmarked) [Compound 139, 3-METHANESULFONYL-N-(6,7,8,9-TETRAHYDRO-5H-BENZOCYCLOHEPTEN-6-YL)-BENZAMIDE], in series [1], the pEC50 was 5.72 and the maximal fold induction amounted to 3.

With `Cc1ccc(S(C)(=O)=O)cc1C(=O)NC1CCCc2ccccc2C1` (centres unmarked) [Compound 140, 5-METHANESULFONYL-2-METHYL-N-(6,7,8,9-TETRAHYDRO-5H-BENZOCYCLOHEPTEN-6-YL)-BENZAMIDE], in series [1], the pEC50 is 5.89 and the maximal fold induction stood at 3.

On to `O=C(NC1CCCc2ccccc2C1)c1nc(Cl)ccc1Cl` (centres unmarked) [Compound 141, 3,6-DICHLORO-PYRIDINE-2-CARBOXYLIC ACID (6,7,8,9-TETRAHYDRO-5H-BENZOCYCLOHEPTEN-6-YL)-AMIDE], for which, in series [1], the pEC50 is 6.60 and the maximal fold induction stood at 3.2.

For the compound `O=C(NC1CCCc2ccccc2C1)c1cc(NCc2ccccc2)ccn1` (centres unmarked) [Compound 142, 4-BENZYLAMINO-PYRIDINE-2-CARBOXYLIC ACID (6,7,8,9-TETRAHYDRO-5H-BENZOCYCLOHEPTEN-6-YL)-AMIDE], in series [1], the pEC50 is 5.52 and the maximal fold induction turned out to be 2.5.

For `Nc1cccnc1C(=O)NC1CCCc2ccccc2C1` (centres unmarked) [Compound 144, 3-AMINO-PYRIDINE-2-CARBOXYLIC ACID (6,7,8,9-TETRAHYDRO-5H-BENZOCYCLOHEPTEN-6-YL)-AMIDE], in series [1], the pEC50 is 8.00 and the maximal fold induction is 2.9.

With `CS(=O)(=O)Nc1cccnc1C(=O)NC1CCCc2ccccc2C1` (centres unmarked) [Compound 145, 3-METHANESULFONYLAMINO-PYRIDINE-2-CARBOXYLIC ACID (6,7,8,9-TETRAHYDRO-5H-BENZOCYCLOHEPTEN-6-YL)-AMIDE], in series [1], the pEC50 was 5.42 and the maximal fold induction is 1.6.

For the compound `Nc1ccnc(C(=O)NC2CCCc3ccccc3C2)c1` (centres unmarked) [Compound 146, 4-AMINO-PYRIDINE-2-CARBOXYLIC ACID (6,7,8,9-TETRAHYDRO-5H-BENZOCYCLOHEPTEN-6-YL)-AMIDE], in series [1], the pEC50 is 5.62 and the maximal fold induction amounted to 2.9.
